{"source": "patent US6552071B2", "about": "“Methods for treating cell death diseases and inflammation” (President and Fellows of Harvard College, priority 1999, dated 2003)", "format_in_all_cases": "cell-based", "key": {"caspase-11": {"tested_on": "caspase-11", "assay": "LPS-induced caspase-11 expression in BalbC/3T3 cells, Western blot", "experimental": "FIG. 27 is a graph of the inhibition of caspase-11 induction by synthetic wedelolactone. BalbC/3T3 cells were treated with 0, 30 μM, 40 μM, 60μM, 80 μM or 100 μM of wedelolactone for 1 hour and LPS for an additional 6 hours. The induction of caspase-11 was measured by Western blot analysis and quantification.\nTo identify modulators of caspase-11 expression or activity, a tissue culture model of caspase-11 induction was generated. In this model, BalbC/3T3 cells normally express undetectable levels of caspase-11 biological activity, as measured by Western blot analysis. […] A caspase-11 modulatory compound may be administered to the cells prior to administration of LPS, and then caspase-11 biological activity may be measured at a specific time after addition of LPS to the culture media of the cells. A caspase-11 modulatory compound that suppresses the LPS-induced biological activity of caspase-11 is considered to be a compound that modulates not only caspase-11 expression, but also cell death or inflammation.\nBalbC/3T3 cells were next preincubated with an ethanol extract of the plant Eclipta prostrata L. (454 g of Eclipta prostrata L. was extracted into 8 ml of ethanol; 5 μl of extract/ml of tissue culture media was applied to the cell culture) for 6 hours, followed by treatment with LPS for 6 hours, as described above. The level of caspase-11 protein expression was then measured."}, "NF-κB": {"tested_on": "NF-κB", "assay": "NF-κB-luciferase reporter in LPS-treated BalbC/3T3 cells", "experimental": "FIG. 5A is a graph of the effect of the active Eclipta prostrata L. fraction on induction of NF-κB and caspase-11. BalbC/3T3 cells were transfected with an NF-κB luciferase report construct and treated with the ethylacetate fraction of Eclipta prostrata L. ethylacetate extract (EA) or 11,12-dihydroxy coumestan (10 mg/ml) for 1 hour and then treated with 2 μg/ml LPS for 9 hours. Luciferase activity was then determined.\nFIG. 28 is a graph of the inhibition of NF-κB activation by synthetic wedelolactone. BalbC/3T3 cells were transfected with NF-κB luciferase construct. Twelve hours later, cells were treated with 0, 20 μM, 40 μM, 60 μM, or 100 μM of wedelolactone for 1 hour and then 2 μg/ml LPS for additional 6 hours. Luciferase activity was then quantified.\nSince caspase-11 is induced through the NF-κB pathway, wedelolactone (FIG. 3) may inhibit the activity of NF-κB. To examine this possibility, BalbC/3T3 cells were transfected with an NF-κB-luciferase reporter plasmid (containing an NF-κB response element).\nThe ability of synthetic wedelolactone to inhibit the activation of NF-κB induced by LPS was also assessed. BalbC/3T3 cells were transfected with a plasmid encoding an NF-κB-luciferase reporter protein in the presence of varying concentrations of wedelolactone. […] These experiments provided the final confirmation that wedelolactone is an inhibitor of NF-κB activation and caspase-11 induction. Thus, wedelolactone can be used to treat cell death diseases and inflammation."}, "STAT1": {"tested_on": "STAT1", "assay": "Atlas DNA array mRNA expression in LPS-treated BalbC/3T3 cells", "settings": "100 μM 1 h, then LPS 6 h", "text": "(§1) One hundred μM wedelolactone reduced the expression of NF-κB p105 mRNA in LPS-treated BalbC/3T3 cells at the ratio of 1 to 8."}, "STAT3": {"tested_on": "STAT3", "assay": "Atlas DNA array mRNA expression in LPS-treated BalbC/3T3 cells", "settings": "100 μM 1 h, then LPS 6 h", "text": "as §1"}, "NF-κB p105 mRNA": {"tested_on": "NF-κB p105 mRNA", "assay": "Atlas DNA array mRNA expression in LPS-treated BalbC/3T3 cells", "settings": "100 μM 1 h, then LPS 6 h, versus LPS only", "text": "as §1"}}, "data": [{"compound": "COc1cc(O)c2c(c1)oc(=O)c1c3cc(O)c(O)cc3oc21", "note": "[wedelolactone]", "values": [{"measurement": "Suppression of LPS-induced caspase-11 expression", "setting": "caspase-11; 70 μg/ml, 6 hour pre-treatment, then LPS", "result": "suppressed caspase-11 expression"}, {"measurement": "IC50", "setting": "caspase-11; BALB/c3T3, BalbC/3T3 cells, wedelolactone 1 hour, LPS additional 6 hours, read-out: IC50, inhibition of induction of caspase-11 by LPS", "result": "~50", "unit": "µM"}, {"measurement": "Inhibition of LPS-induced activation of the NF-κB promoter (FIG. 28)", "setting": "NF-κB; 0-100 μM 1 hour, 2 μg/ml LPS 6 hours, same concentration range as caspase-11 inhibition", "result": "inhibited the activation of the NF-κB promoter"}, {"measurement": "Inhibition of NF-κB transcriptional activity induced by LPS", "setting": "NF-κB; 60 and 100 μM", "result": "inhibited the NF-κB transcriptional activity"}, {"measurement": "STAT1 expression level, % of control cells treated with LPS only", "setting": "STAT1", "result": 4, "unit": "%"}, {"measurement": "STAT3 expression level, % of control cells treated with LPS only", "setting": "STAT3", "result": 30, "unit": "%"}, {"measurement": "Reduction of NF-κB p105 mRNA expression, ratio", "setting": "NF-κB p105 mRNA", "result": "1 to 8"}]}, {"compound": "O=c1oc2ccccc2c2oc3cc(O)c(O)cc3c12", "note": "[11,12-dihydroxy coumestan, reference compound]", "values": [{"measurement": "Inhibition of caspase-11 expression", "setting": "caspase-11; general statement in Example 3", "result": "does not inhibit caspase-11 expression"}, {"measurement": "Inhibition of LPS induction of NF-κB luciferase activity (FIG. 5A)", "setting": "NF-κB; 1 hour pre-treatment, 2 μg/ml LPS 9 hours, coumestan 10 mg/ml", "result": "did not inhibit NF-κB induction"}]}]}
